Measurements taken from patent US12440493B2, “Combination therapy for treating cancer comprising substituted piperazines” (Eli Lilly and Company, priority 2020, dated 2025).
Values joined by “and” are separate entries in the source; they are usually repeats but may differ in a detail not shown here. Equal entries are not always repeated.

Experiments:
[1] = tested on: IDH1(R132H) primary human AML cells; assay: AML cell differentiation in blood (flow cytometry, % hCD33+hCD11b+ of hCD45+ cells), human AML PDx models in NSG mice; format: in vivo; settings: for AML cell differentiation (% hCD33 + hCD11b+ (of hCD45+ cells)): QD, PO
Procedure: (§1) Compounds and Formulation. For in vivo studies, each test article is prepared at an appropriate concentration with vehicle. […] Compound A is prepared fresh at the appropriate concentrations with vehicle every 7 days and stored at 4° C. between doses. […] Cytarabine is prepared fresh weekly by dilution with sterile saline from stock solution of Cytarabine (injection 20 mg/mL, (Pfizer injectables')). Azacitidine (Sigma, Lot #MKBR7212) is formulated in sterile water and is prepared fresh daily immediately before dosing. In vivo human AML PDx models. […] Two models are used in the studies: […] As needed, splenocytes from tumor-bearing mice are used to propagate and expand the models, as described. Each test article is prepared as described above at an appropriate concentration with vehicle to give animals the doses tested in this study at a dosing volume of 10 μL/gram body weight. Mice receiving Compound A (PO, QD) are treated at the indicated doses for the duration of the study. The combination agents are dosed as follows: […] Treated mice are assessed in comparison to vehicle treated and naïve (non-tumor bearing) control mice. Body weight is recorded twice per week. […] AML PDx model propagation. […] Spleens are processed and splenocytes isolated as described below. Two hundred μL per subject of the splenocyte prep is injected IV (intravenous, tail vein) into recipient NSG mice. […] Once engraftment is confirmed, the mice are monitored biweekly until ready to be put on study. […] Submandibular blood is collected. Spleen/Splenocyte Processing and Prep. After excision, a spleen is weighed, and […] is placed in a standard sterile 15 mL polypropylene conical tube containing PBS, and placed on ice. […] The spleen is placed in ice cold sterile PBS in a 15 mL collection tube. The spleen is removed from the collection tube and placed in a 100 micron 50 mL conical tube cell strainer (BD Falcon #352360). The spleen is processed by gentle rubbing of the spleen tissue against the surface of the cell strainer with the end of a 5 mL syringe plunger in a circular motion. The surface of the strainer is rinsed with 10 mL room temperature sterile DPBS (HyClone SH30028) 3 times during the process. […] The cell pellet is collected by centrifugation (300×g) and washed three times with 30 mL sterile DPBS. The cells are counted and resuspended in DPBS at the desired implant concentration. Bone Marrow Collection. […] Flow cytometry analysis of human white cells. Submandibular blood samples from in vivo studies are collected. Fluor-conjugated antibody stains are added according to the manufacturer's instructions (anti-human CD33-PE (clone WM53, BD Cat #555450), anti-human CD14-APC (clone MφpP9, BD Cat #340436), anti-human CD15-V450 (clone HI98, BD Cat #561584), anti-human CD117-BV421 (clone YB5.B8, BD Cat #562434), anti-human […]7 (clone ICRF44, BD Cat #557754), anti-human […]7 (clone HI30, BD Cat #557748), and anti-human CD3-FITC (clone SK7, BD Cat #340542)). The samples are incubated for 30 minutes at room temperature, protected from light. After the incubation, 1.5 mL 1×BD Lyse/Fix (37° C., (BD #558049)) is added to each sample and incubated for 12 minutes at room temperature. The tubes are centrifuged at 300×g for 7 minutes. BD Lyse/Fix solution is aspirated and the cell pellet washed with stain/wash buffer 3 times (1 wash step consisted of: pellet resuspended in 3 mL stain/wash buffer, centrifuged at 300×g, aspirated wash). Fixed cells are then resuspended in 300 to 400 μL stain/wash buffer. Samples are analyzed on a Becton Dickinson FACSVerse Flow cytometer (Cat #651155 Serial #Z6511550447) using standard flow cytometry principles and techniques. Samples are analyzed on the same day as they are stained and fixed. Population gating and data analysis of percent population are performed in the FACSuite software on the FACSVerse cytometer. Percent population values from the data analysis are plotted in Graphpad Prism or in JMP13. […]

[2] = tested on: IDH1(R132H) primary human AML cells; assay: Bone marrow AML clearance (flow cytometry), human AML PDx models in NSG mice; format: in vivo; settings: for Bone Marrow AML Clearance: % hCD33 + hCD45+ (% of white cells) / Bone Marrow AML Clearance: % hCD45+ (% of white cells): QD, PO, each line one animal
Procedure: as §1

Structure (SMILES): C=CC(=O)N1CCN([C@@H](CC2CC2)c2ccc([C@H](C)Nc3ncc4c(n3)N(CC)C(=O)OC4)cc2)CC1 [Compound A, 7-[[(1S)-1-[4-[(1S)-2-cyclopropyl-1-(4-prop-2-enoylpiperazin-1-yl)ethyl]phenyl]ethyl]amino]-1-ethyl-4H-pyrimido[4,5-d][1,3]oxazin-2-one]
- AML cell differentiation (% hCD33 + hCD11b+ (of hCD45+ cells)) ([1]; B: 1 mg/kg Compound A, treatment day −8 (before treatment), one animal): 19.01% and 16.75%
- AML cell differentiation (% hCD33 + hCD11b+ (of hCD45+ cells)) ([1]; Treatment day 2, 3.3 mg/kg Compound A, Table 2B, each value one animal, 3.3 mg/kg): 14.12% and 16.05% and 13.27% and 10.34% and 11.59% and 13.32% and 14.01%
- AML cell differentiation (% hCD33 + hCD11b+ (of hCD45+ cells)) ([1]; Treatment day 15, 3.3 mg/kg Compound A, Table 2B, each value one animal, 3.3 mg/kg): 33.42% and 27.78% and 36.01% and 28.02% and 28.21% and 29.24% and 33.82%
- AML cell differentiation (% hCD33 + hCD11b+ (of hCD45+ cells)) ([1]; Treatment day 18, 3.3 mg/kg Compound A, each value one animal, 3.3 mg/kg): 23.96% and 27.78% and 22.27% and 22.38% and 22.41% and 29.38% and 24.62%
- AML cell differentiation (% hCD33 + hCD11b+ (of hCD45+ cells)) ([1]; Treatment day 28, 3.3 mg/kg Compound A, Table 2B, each value one animal, 3.3 mg/kg): 35.79% and 36.46% and 33.59% and 39.91% and 37.16% and 40.47%
- AML cell differentiation (% hCD33 + hCD11b+ (of hCD45+ cells)) ([1]; Treatment day 34, 3.3 mg/kg Compound A, each value one animal, 3.3 mg/kg): 30.68% and 27.59% and 29.94% and 25.81% and 29.79% and 34.39% and 29.26%
- AML cell differentiation (% hCD33 + hCD11b+ (of hCD45+ cells)) ([1]; Treatment day 43, 3.3 mg/kg Compound A, Table 2B, each value one animal, 3.3 mg/kg): 37.51% and 35.22% and 33.33% and 36.61% and 41.32% and 33.68% and 39.34%
- AML cell differentiation (% hCD33 + hCD11b+ (of hCD45+ cells)) ([1]; Treatment day 47, 3.3 mg/kg Compound A, each value one animal, 3.3 mg/kg): 37.61% and 35.31% and 38.58% and 39.61% and 31.81% and 41.02% and 35.79%
- AML cell differentiation (% hCD33 + hCD11b+ (of hCD45+ cells)) ([1]; Treatment day 58, 3.3 mg/kg Compound A, Table 2B, each value one animal, 3.3 mg/kg): 42.9% and 44.03% and 33.47% and 48.08% and 47.13% and 40.2% and 26.62%
- AML cell differentiation (% hCD33 + hCD11b+ (of hCD45+ cells)) ([1]; Treatment day 61, 3.3 mg/kg Compound A, each value one animal, 3.3 mg/kg): 37.61% and 40.23% and 40.06% and 33.82% and 32.55% and 43.95% and 44%
- AML cell differentiation (% hCD33 + hCD11b+ (of hCD45+ cells)) ([1]; Treatment day 75, 3.3 mg/kg Compound A, each value one animal, 3.3 mg/kg): 33.98% and 35.9% and 31.38% and 37.53% and 34.66% and 51.92%
- AML cell differentiation (% hCD33 + hCD11b+ (of hCD45+ cells)) ([1]; Treatment day 77, 3.3 mg/kg Compound A, Table 2B, each value one animal, 3.3 mg/kg): 56.29% and 46.83% and 42.98% and 48.3% and 51.69% and 48.56%
- AML cell differentiation (% hCD33 + hCD11b+ (of hCD45+ cells)) ([1]; Treatment day 89, 3.3 mg/kg Compound A, each value one animal, 3.3 mg/kg): 21.32% and 43.96% and 40.34% and 28.57% and 37.17% and 45.68%
- AML cell differentiation (% hCD33 + hCD11b+ (of hCD45+ cells)) ([1]; Treatment day 98, 3.3 mg/kg Compound A, Table 2B, each value one animal, 3.3 mg/kg): 44.09% and 47.66% and 33.67% and 36.45% and 33.6%
- AML cell differentiation (% hCD33 + hCD11b+ (of hCD45+ cells)) ([1]; Treatment day −3, 3.3 mg/kg Compound A, each value one animal, 3.3 mg/kg): 11.93% and 12% and 13.59% and 13.22% and 11.07% and 13.07%
- AML cell differentiation (% hCD33 + hCD11b+ (of hCD45+ cells)) ([1]; Treatment day −19, 3.3 mg/kg Compound A, Table 2B, each value one animal, 3.3 mg/kg): 1.45% and 2.19% and 0.38% and 2.21% and 0.64% and 0.34% and 0.68%
- % AML cell differentiation (treatment group value) ([1]; day 43, group B: Compound A (3.3 mg/kg), azacitidine study, vehicle 15%): 37%
- % AML cell differentiation (treatment group value) ([1]; day 47, group B: Compound A (3.3 mg/kg), cytarabine study, vehicle 10%): 37%
- % AML cell differentiation (treatment group value) ([1]; day 50, group B: 1 mg Compound A, vehicle 28%): 43%
- % AML cell differentiation (treatment group value) ([1]; day 50, group C: 10 mg Compound A, vehicle 28%): 79%
- Bone Marrow AML Clearance: % hCD33 + hCD45+ (% of white cells) ([2]; 1 mg/kg Compound A): 87.74% and 92.23%
- Bone Marrow AML Clearance: % hCD45+ (% of white cells) ([2]; 1 mg/kg Compound A): 88.34% and 92.36%
- Bone Marrow AML Clearance: % hCD33 + hCD45+ (% of white cells) ([2]; 3.3 mg/kg Compound A, Table 1C): 98.6% and 44.3% and 98.54% and 86.55%
- Bone Marrow AML Clearance: % hCD45+ (% of white cells) ([2]; 3.3 mg/kg Compound A, Table 1C): 98.36% and 43.99% and 98.15% and 86.21%
- Bone Marrow AML Clearance: % hCD33 + hCD45+ (% of white cells) ([2]; 3.3 mg/kg Compound A, Table 2C): 72.73% and 84.3% and 99.41% and 91.97%
- Bone Marrow AML Clearance: % hCD45+ (% of white cells) ([2]; 3.3 mg/kg Compound A, Table 2C): 72.6% and 84.16% and 99.3% and 91.11%
- Bone Marrow AML Clearance: % hCD33 + hCD45+ (% of white cells) ([2]; 10 mg/kg Compound A): 8.65% and 4.27% and 1.09% and 0.78% and 1.84%
- Bone Marrow AML Clearance: % hCD45+ (% of white cells) ([2]; 10 mg/kg Compound A): 8.66% and 4.28% and 1.11% and 0.78% and 1.85%
- % human AML cells in bone marrow (of white cells; lower = more clearance) ([2]; group B: 1 mg Compound A, vehicle 86%): 90%
- % human AML cells in bone marrow (of white cells; lower = more clearance) ([2]; group B: Compound A (3.3 mg/kg), azacitidine study, vehicle 94%): 87%
- % human AML cells in bone marrow (of white cells; lower = more clearance) ([2]; group B: Compound A (3.3 mg/kg), cytarabine study, vehicle 94%): 78%
- % human AML cells in bone marrow (of white cells; lower = more clearance) ([2]; group C: 10 mg Compound A, vehicle 86%): 2.3%
